In PubChem BioAssay (NCI):
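How tested: cells in 96-well plates exposed to compound for 48 hours at five concentrations. TGI denotes the concentration required for complete inhibition of growth.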

What was measured:
Assay in all cases: NCI tumour cell line growth inhibition, 48 h
786-0 renal = test system: 786-0 renal
A498 renal = test system: A498 renal
A549 NSCLC = test system: A549 NSCLC
ACHN renal = test system: ACHN renal
BT-549 breast = test system: BT-549 breast
CAKI-1 renal = test system: CAKI-1 renal
CCRF-CEM leukemia = test system: CCRF-CEM leukemia
COLO 205 colon = test system: COLO 205 colon
DU-145 prostate = test system: DU-145 prostate
EKVX NSCLC = test system: EKVX NSCLC
HCC-2998 colon = test system: HCC-2998 colon
HCT-116 colon = test system: HCT-116 colon
HCT-15 colon = test system: HCT-15 colon
HL-60(TB) leukemia = test system: HL-60(TB) leukemia
HOP-62 NSCLC = test system: HOP-62 NSCLC
HOP-92 NSCLC = test system: HOP-92 NSCLC
HS 578T breast = test system: HS 578T breast
HT29 colon = test system: HT29 colon
IGROV1 ovarian = test system: IGROV1 ovarian
K-562 leukemia = test system: K-562 leukemia
KM12 colon = test system: KM12 colon
LOX IMVI melanoma = test system: LOX IMVI melanoma
M14 melanoma = test system: M14 melanoma
MALME-3M melanoma = test system: MALME-3M melanoma
MCF7 breast = test system: MCF7 breast
MDA-MB-231 breast = test system: MDA-MB-231 breast
MDA-MB-435 = test system: MDA-MB-435
MDA-N = test system: MDA-N
MOLT-4 leukemia = test system: MOLT-4 leukemia
NCI-H226 lung = test system: NCI-H226 lung
NCI-H23 lung = test system: NCI-H23 lung
NCI-H460 lung = test system: NCI-H460 lung
NCI-H522 lung = test system: NCI-H522 lung
NCI/ADR-RES ovarian = test system: NCI/ADR-RES ovarian
OVCAR-3 ovarian = test system: OVCAR-3 ovarian
OVCAR-4 ovarian = test system: OVCAR-4 ovarian
OVCAR-5 ovarian = test system: OVCAR-5 ovarian
OVCAR-8 ovarian = test system: OVCAR-8 ovarian
PC-3 prostate = test system: PC-3 prostate
RPMI-8226 leukemia = test system: RPMI-8226 leukemia
RXF 393 renal = test system: RXF 393 renal
SF-268 CNS = test system: SF-268 CNS
SF-295 CNS = test system: SF-295 CNS
SF-539 CNS = test system: SF-539 CNS
SK-MEL-2 melanoma = test system: SK-MEL-2 melanoma
SK-MEL-28 melanoma = test system: SK-MEL-28 melanoma
SK-MEL-5 melanoma = test system: SK-MEL-5 melanoma
SK-OV-3 ovarian = test system: SK-OV-3 ovarian
SN12C renal = test system: SN12C renal
SNB-19 CNS = test system: SNB-19 CNS
SNB-75 CNS = test system: SNB-75 CNS
SR leukemia = test system: SR leukemia
SW-620 colon = test system: SW-620 colon
T-47D breast = test system: T-47D breast
TK-10 renal = test system: TK-10 renal
U251 CNS = test system: U251 CNS
UACC-257 melanoma = test system: UACC-257 melanoma
UACC-62 melanoma = test system: UACC-62 melanoma
UO-31 renal = test system: UO-31 renal
DLD-1 colon = test system: DLD-1 colon
DMS 273 small cell lung = test system: DMS 273 small cell lung
KM20L2 colon = test system: KM20L2 colon
LXFL 529 NSCLC = test system: LXFL 529 NSCLC
M19-MEL melanoma = test system: M19-MEL melanoma

In the case of `COc1ccc(/C(CC2OC(=O)c3ccccc32)=N\NC(=O)C[N+](C)(C)C)cc1` (stereo not given), the TGI (786-0 renal) is reported as 69.3 µM, the TGI (A498 renal) is reported as 60.1 µM and the TGI (A549 NSCLC) is reported as over 100 µM. For the same molecule, the TGI (ACHN renal) was over 100 µM, the TGI (BT-549 breast) was 77.1 µM and the TGI (CAKI-1 renal) was over 100 µM. For the same molecule, the TGI (CCRF-CEM leukemia) was 72 µM, the TGI (COLO 205 colon) was 71 µM and the TGI (DU-145 prostate) was 63.4 µM. For the same molecule, the TGI (EKVX NSCLC) was over 100 µM, the TGI (HCC-2998 colon) was 30.9 µM and the TGI (HCT-116 colon) was 81.9 µM. It also gave a TGI (HCT-15 colon) of 44.8 µM, a TGI (HL-60(TB) leukemia) of over 100 µM and a TGI (HOP-62 NSCLC) of over 100 µM. It also gave a TGI (HOP-92 NSCLC) of 67.8 µM, a TGI (HS 578T breast) of over 100 µM and a TGI (HT29 colon) of 40.9 µM. It also gave a TGI (IGROV1 ovarian) of over 100 µM, a TGI (K-562 leukemia) of 48.4 µM and a TGI (KM12 colon) of 52 µM. For the same molecule, the TGI (LOX IMVI melanoma) was 65.9 µM, the TGI (M14 melanoma) was over 100 µM and the TGI (MALME-3M melanoma) was over 100 µM. For the same molecule, the TGI (MCF7 breast) was over 100 µM, the TGI (MDA-MB-231 breast) was over 100 µM and the TGI (MDA-MB-435) was 71.9 µM. The TGI (MDA-N) was over 100 µM, the TGI (MOLT-4 leukemia) was 70.2 µM and the TGI (NCI-H226 lung) was 62.6 µM. For the same molecule, the TGI (NCI-H23 lung) was 47.7 µM, the TGI (NCI-H460 lung) was 66.7 µM and the TGI (NCI-H522 lung) was 64.1 µM. The TGI (NCI/ADR-RES ovarian) was 56.7 µM, the TGI (OVCAR-3 ovarian) was over 100 µM and the TGI (OVCAR-4 ovarian) was 78.5 µM. For the same molecule, the TGI (OVCAR-5 ovarian) was over 100 µM, the TGI (OVCAR-8 ovarian) was 52.9 µM and the TGI (PC-3 prostate) was over 100 µM. For the same molecule, the TGI (RPMI-8226 leukemia) was 39.6 µM, the TGI (RXF 393 renal) was 77.6 µM and the TGI (SF-268 CNS) was over 100 µM. The TGI (SF-295 CNS) was over 100 µM, the TGI (SF-539 CNS) was over 100 µM and the TGI (SK-MEL-2 melanoma) was 94.2 µM. For the same molecule, the TGI (SK-MEL-28 melanoma) was 55.5 µM, the TGI (SK-MEL-5 melanoma) was 59.9 µM and the TGI (SK-OV-3 ovarian) was over 100 µM. It also gave a TGI (SN12C renal) of over 100 µM, a TGI (SNB-19 CNS) of 96.5 µM and a TGI (SNB-75 CNS) of 75.6 µM. For the same molecule, the TGI (SR leukemia) was 45.4 µM, the TGI (SW-620 colon) was 64.1 µM and the TGI (T-47D breast) was over 100 µM. It also gave a TGI (TK-10 renal) of 87.8 µM, a TGI (U251 CNS) of 36.3 µM and a TGI (UACC-257 melanoma) of 91.8 µM. It also gave a TGI (UACC-62 melanoma) of 40.1 µM and a TGI (UO-31 renal) of 79.6 µM.
`CCOC(=O)/C(C#N)=C1/C(O)=C(C(=O)OC)C(C(=O)OC)=C1C(=O)OC` was tested, and the TGI (786-0 renal) was over 100 µM, the TGI (A549 NSCLC) was over 100 µM and the TGI (ACHN renal) was over 100 µM. It also gave a TGI (CAKI-1 renal) of over 100 µM, a TGI (CCRF-CEM leukemia) of over 100 µM and a TGI (COLO 205 colon) of over 100 µM. The TGI (DLD-1 colon) was over 100 µM, the TGI (DMS 273 small cell lung) was over 100 µM and the TGI (EKVX NSCLC) was over 100 µM. It also gave a TGI (HCC-2998 colon) of over 100 µM, a TGI (HCT-15 colon) of over 100 µM and a TGI (HL-60(TB) leukemia) of over 100 µM. It also gave a TGI (HOP-92 NSCLC) of over 100 µM, a TGI (HT29 colon) of over 100 µM and a TGI (IGROV1 ovarian) of over 100 µM. The TGI (K-562 leukemia) was over 100 µM, the TGI (KM12 colon) was over 100 µM and the TGI (KM20L2 colon) was over 100 µM. The TGI (LOX IMVI melanoma) was over 100 µM, the TGI (LXFL 529 NSCLC) was over 100 µM and the TGI (M14 melanoma) was over 100 µM. The TGI (M19-MEL melanoma) was over 100 µM, the TGI (MALME-3M melanoma) was over 100 µM and the TGI (MOLT-4 leukemia) was over 100 µM. It also gave a TGI (NCI-H23 lung) of over 100 µM, a TGI (NCI-H460 lung) of over 100 µM and a TGI (NCI-H522 lung) of over 100 µM. For the same molecule, the TGI (OVCAR-3 ovarian) was over 100 µM, the TGI (OVCAR-4 ovarian) was over 100 µM and the TGI (OVCAR-5 ovarian) was over 100 µM. It also gave a TGI (OVCAR-8 ovarian) of over 100 µM, a TGI (RPMI-8226 leukemia) of over 100 µM and a TGI (RXF 393 renal) of over 100 µM. It also gave a TGI (SF-268 CNS) of over 100 µM, a TGI (SF-295 CNS) of over 100 µM and a TGI (SF-539 CNS) of over 100 µM. For the same molecule, the TGI (SK-MEL-2 melanoma) was over 100 µM, the TGI (SK-MEL-28 melanoma) was over 100 µM and the TGI (SK-MEL-5 melanoma) was over 100 µM. It also gave a TGI (SK-OV-3 ovarian) of over 100 µM, a TGI (SN12C renal) of over 100 µM and a TGI (SNB-19 CNS) of over 100 µM. The TGI (SNB-75 CNS) was over 100 µM, the TGI (SW-620 colon) was over 100 µM and the TGI (TK-10 renal) was over 100 µM. It also gave a TGI (U251 CNS) of over 100 µM, a TGI (UACC-257 melanoma) of over 100 µM and a TGI (UACC-62 melanoma) of over 100 µM. For the same molecule, the TGI (UO-31 renal) was over 100 µM.
Work on `c1ccc(C(=NNc2cnc3ccccc3n2)c2ccccn2)cc1` yielded a TGI (786-0 renal) of 15.4 µM, a TGI (A498 renal) of over 100 µM and a TGI (A549 NSCLC) of 15 µM. The TGI (ACHN renal) was 12.6 µM, the TGI (BT-549 breast) was 24.5 µM and the TGI (CAKI-1 renal) was 12.2 µM. The TGI (CCRF-CEM leukemia) was 28.3 µM, the TGI (COLO 205 colon) was 24.6 µM and the TGI (DU-145 prostate) was over 61.3 µM. It also gave a TGI (EKVX NSCLC) of 13.4 µM, a TGI (HCC-2998 colon) of 19.9 µM and a TGI (HCT-116 colon) of over 36.6 µM. It also gave a TGI (HCT-15 colon) of 14.5 µM, a TGI (HL-60(TB) leukemia) of 12.3 µM and a TGI (HOP-62 NSCLC) of 20 µM. For the same molecule, the TGI (HOP-92 NSCLC) was 28.3 µM, the TGI (HS 578T breast) was 37.9 µM and the TGI (HT29 colon) was 17.7 µM. The TGI (IGROV1 ovarian) was 11.5 µM, the TGI (K-562 leukemia) was over 67.5 µM and the TGI (KM12 colon) was 20.5 µM. It also gave a TGI (M14 melanoma) of 10.9 µM, a TGI (MALME-3M melanoma) of 23 µM and a TGI (MCF7 breast) of 12.2 µM. For the same molecule, the TGI (MDA-MB-231 breast) was 26.9 µM, the TGI (MDA-MB-435) was over 47.6 µM and the TGI (MDA-N) was over 52.2 µM. It also gave a TGI (MOLT-4 leukemia) of 11.4 µM, a TGI (NCI-H226 lung) of 40.6 µM and a TGI (NCI-H23 lung) of 14.1 µM. It also gave a TGI (NCI-H460 lung) of 10.5 µM, a TGI (NCI-H522 lung) of 12.3 µM and a TGI (NCI/ADR-RES ovarian) of 2.15 µM. It also gave a TGI (OVCAR-3 ovarian) of 12.2 µM, a TGI (OVCAR-4 ovarian) of 28 µM and a TGI (OVCAR-5 ovarian) of 27.1 µM. For the same molecule, the TGI (OVCAR-8 ovarian) was 2.68 µM, the TGI (PC-3 prostate) was 19.2 µM and the TGI (RPMI-8226 leukemia) was over 36.8 µM. The TGI (RXF 393 renal) was 21.5 µM, the TGI (SF-268 CNS) was 13.6 µM and the TGI (SF-295 CNS) was 12.8 µM. The TGI (SF-539 CNS) was 17.4 µM, the TGI (SK-MEL-2 melanoma) was 26.2 µM and the TGI (SK-MEL-28 melanoma) was 55.5 µM. It also gave a TGI (SK-MEL-5 melanoma) of 16 µM, a TGI (SK-OV-3 ovarian) of over 44.6 µM and a TGI (SN12C renal) of 24 µM. It also gave a TGI (SNB-19 CNS) of over 39.6 µM, a TGI (SNB-75 CNS) of 31.4 µM and a TGI (SR leukemia) of 10.9 µM. For the same molecule, the TGI (SW-620 colon) was 22.5 µM, the TGI (T-47D breast) was 33.5 µM and the TGI (U251 CNS) was 23.8 µM. It also gave a TGI (UACC-257 melanoma) of 17.5 µM, a TGI (UACC-62 melanoma) of 20.2 µM and a TGI (UO-31 renal) of 3.25 µM.
